The kinase profiling compilation of Christmann-Franck et al. (2016)

Key:
Assay in all cases: KINOMEscan competition binding
Settings in all cases: compound 10.0 µM
[1] = system: PIK3CA (human), P42336 [I800L]
PIK3CB (human) = PIK3CB (human) (UniProt P42338)
TIE1 (human) = TIE1 (human) (UniProt P35590)
FGFR1 (human) = FGFR1 (human) (UniProt P11362)
AXL (human) = AXL (human) (UniProt P30530)
FLT1 (human) = FLT1 (human) (UniProt P17948)
PRKX (human) = PRKX (human) (UniProt P51817)
MAP2K5 (human) = MAP2K5 (human) (UniProt Q13163)
EPHA5 (human) = EPHA5 (human) (UniProt P54756)
KDR (human) = KDR (human) (UniProt P35968)
MAP3K11 (human) = MAP3K11 (human) (UniProt Q16584)
MINK1 (human) = MINK1 (human) (UniProt Q8N4C8)
ACVRL1 (human) = ACVRL1 (human) (UniProt P37023)
CSNK2A2 (human) = CSNK2A2 (human) (UniProt P19784)
SIK2 (human) = SIK2 (human) (UniProt Q9H0K1)
[2] = system: EGFR (human), P00533 [G719S]
PIP4K2B (human) = PIP4K2B (human) (UniProt P78356)
[3] = biological target: JAK2 JH1 catalytic (human) (UniProt O60674)
PLK4 (human) = PLK4 (human) (UniProt O00444)
CDKL1 (human) = CDKL1 (human) (UniProt Q00532)
MYO3A (human) = MYO3A (human) (UniProt Q8NEV4)
CDK14 (human) = CDK14 (human) (UniProt O94921)
CDK17 (human) = CDK17 (human) (UniProt Q00537)
[4] = system: EIF2AK4 KD2 (human), Q9P2K8 [S808G]
RPS6KA1 KD2 (human) = RPS6KA1 KD2 (human) (UniProt Q15418)
PRKCH (human) = PRKCH (human) (UniProt P24723)
CSNK1G1 (human) = CSNK1G1 (human) (UniProt Q9HCP0)
RPS6KB1 (human) = RPS6KB1 (human) (UniProt P23443)
[5] = biological target: JAK1 JH2 pseudokinase (human) (UniProt P23458)
PRKD1 (human) = PRKD1 (human) (UniProt Q15139)
TNK1 (human) = TNK1 (human) (UniProt Q13470)
TNK2 (human) = TNK2 (human) (UniProt Q07912)
PKN1 (human) = PKN1 (human) (UniProt Q16512)
GSK3A (human) = GSK3A (human) (UniProt P49840)
LYN (human) = LYN (human) (UniProt P07948)
DAPK2 (human) = DAPK2 (human) (UniProt Q9UIK4)
PLK2 (human) = PLK2 (human) (UniProt Q9NYY3)
NIM1 (human) = NIM1 (human) (UniProt Q8IY84)
ALK (human) = ALK (human) (UniProt Q9UM73)
CDKL5 (human) = CDKL5 (human) (UniProt O76039)

PRKX (human), sequence (P51817 whole entry, looked up): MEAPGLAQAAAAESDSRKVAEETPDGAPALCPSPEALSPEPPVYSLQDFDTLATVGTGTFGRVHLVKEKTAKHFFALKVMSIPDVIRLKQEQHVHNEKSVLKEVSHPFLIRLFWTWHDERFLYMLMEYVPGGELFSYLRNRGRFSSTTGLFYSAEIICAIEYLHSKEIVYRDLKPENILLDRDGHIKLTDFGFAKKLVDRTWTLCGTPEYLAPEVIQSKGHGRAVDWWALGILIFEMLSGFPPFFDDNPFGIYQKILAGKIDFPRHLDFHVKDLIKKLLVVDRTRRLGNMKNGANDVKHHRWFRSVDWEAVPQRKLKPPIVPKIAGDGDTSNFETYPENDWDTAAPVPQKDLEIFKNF
TNK2 (human), sequence (Q07912 whole entry, looked up): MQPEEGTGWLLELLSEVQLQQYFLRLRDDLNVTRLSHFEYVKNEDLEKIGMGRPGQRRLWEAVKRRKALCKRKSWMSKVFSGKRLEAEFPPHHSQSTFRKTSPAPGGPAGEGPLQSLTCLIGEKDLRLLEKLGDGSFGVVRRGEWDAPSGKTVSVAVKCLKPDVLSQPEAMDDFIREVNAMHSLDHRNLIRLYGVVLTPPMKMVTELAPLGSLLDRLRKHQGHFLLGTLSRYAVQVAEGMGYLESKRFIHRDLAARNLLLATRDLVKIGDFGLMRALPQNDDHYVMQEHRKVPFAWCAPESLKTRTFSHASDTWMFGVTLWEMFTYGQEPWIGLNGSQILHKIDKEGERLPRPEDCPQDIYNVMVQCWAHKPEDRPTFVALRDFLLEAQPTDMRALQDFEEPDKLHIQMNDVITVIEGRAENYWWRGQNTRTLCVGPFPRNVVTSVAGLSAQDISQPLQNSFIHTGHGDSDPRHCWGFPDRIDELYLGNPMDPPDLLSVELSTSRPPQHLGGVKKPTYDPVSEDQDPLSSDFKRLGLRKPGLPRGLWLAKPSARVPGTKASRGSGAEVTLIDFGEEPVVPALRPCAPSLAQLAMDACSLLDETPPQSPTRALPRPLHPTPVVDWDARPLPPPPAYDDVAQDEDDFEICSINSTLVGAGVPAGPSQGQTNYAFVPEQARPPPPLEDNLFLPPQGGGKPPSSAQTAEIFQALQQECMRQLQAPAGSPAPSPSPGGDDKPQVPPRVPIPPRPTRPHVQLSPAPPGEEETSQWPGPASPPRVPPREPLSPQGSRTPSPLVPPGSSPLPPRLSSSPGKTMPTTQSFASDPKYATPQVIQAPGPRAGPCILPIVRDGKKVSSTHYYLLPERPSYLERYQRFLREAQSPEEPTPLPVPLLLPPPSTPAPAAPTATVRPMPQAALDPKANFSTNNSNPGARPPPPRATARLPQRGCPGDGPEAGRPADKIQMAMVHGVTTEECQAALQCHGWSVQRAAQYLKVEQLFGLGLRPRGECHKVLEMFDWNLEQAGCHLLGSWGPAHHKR
PLK4 (human), sequence (O00444 whole entry, looked up): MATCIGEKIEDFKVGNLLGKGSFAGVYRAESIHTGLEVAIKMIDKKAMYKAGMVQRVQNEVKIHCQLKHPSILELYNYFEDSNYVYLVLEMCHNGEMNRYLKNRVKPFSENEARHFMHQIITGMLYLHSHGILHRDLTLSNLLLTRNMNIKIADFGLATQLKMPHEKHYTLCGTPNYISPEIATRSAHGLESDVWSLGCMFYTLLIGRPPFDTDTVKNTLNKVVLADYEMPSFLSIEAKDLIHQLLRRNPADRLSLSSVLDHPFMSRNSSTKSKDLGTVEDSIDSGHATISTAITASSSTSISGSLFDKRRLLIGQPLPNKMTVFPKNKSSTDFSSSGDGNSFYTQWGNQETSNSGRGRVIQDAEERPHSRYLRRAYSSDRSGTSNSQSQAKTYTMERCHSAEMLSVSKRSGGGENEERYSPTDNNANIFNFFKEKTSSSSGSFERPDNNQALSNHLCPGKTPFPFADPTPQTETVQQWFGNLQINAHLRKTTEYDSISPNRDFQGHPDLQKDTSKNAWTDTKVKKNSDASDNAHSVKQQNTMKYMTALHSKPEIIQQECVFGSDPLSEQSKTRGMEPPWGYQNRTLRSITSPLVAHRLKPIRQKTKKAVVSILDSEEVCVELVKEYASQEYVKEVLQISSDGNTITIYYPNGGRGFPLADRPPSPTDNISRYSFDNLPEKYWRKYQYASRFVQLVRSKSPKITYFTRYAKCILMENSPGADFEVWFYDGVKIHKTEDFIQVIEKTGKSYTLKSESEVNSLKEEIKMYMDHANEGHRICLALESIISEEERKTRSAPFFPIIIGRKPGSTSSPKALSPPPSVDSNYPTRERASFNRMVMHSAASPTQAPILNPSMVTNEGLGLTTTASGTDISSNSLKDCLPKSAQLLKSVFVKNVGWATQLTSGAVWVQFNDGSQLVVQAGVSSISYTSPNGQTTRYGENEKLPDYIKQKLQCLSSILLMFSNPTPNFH
PRKCH (human), sequence (P24723 whole entry, looked up): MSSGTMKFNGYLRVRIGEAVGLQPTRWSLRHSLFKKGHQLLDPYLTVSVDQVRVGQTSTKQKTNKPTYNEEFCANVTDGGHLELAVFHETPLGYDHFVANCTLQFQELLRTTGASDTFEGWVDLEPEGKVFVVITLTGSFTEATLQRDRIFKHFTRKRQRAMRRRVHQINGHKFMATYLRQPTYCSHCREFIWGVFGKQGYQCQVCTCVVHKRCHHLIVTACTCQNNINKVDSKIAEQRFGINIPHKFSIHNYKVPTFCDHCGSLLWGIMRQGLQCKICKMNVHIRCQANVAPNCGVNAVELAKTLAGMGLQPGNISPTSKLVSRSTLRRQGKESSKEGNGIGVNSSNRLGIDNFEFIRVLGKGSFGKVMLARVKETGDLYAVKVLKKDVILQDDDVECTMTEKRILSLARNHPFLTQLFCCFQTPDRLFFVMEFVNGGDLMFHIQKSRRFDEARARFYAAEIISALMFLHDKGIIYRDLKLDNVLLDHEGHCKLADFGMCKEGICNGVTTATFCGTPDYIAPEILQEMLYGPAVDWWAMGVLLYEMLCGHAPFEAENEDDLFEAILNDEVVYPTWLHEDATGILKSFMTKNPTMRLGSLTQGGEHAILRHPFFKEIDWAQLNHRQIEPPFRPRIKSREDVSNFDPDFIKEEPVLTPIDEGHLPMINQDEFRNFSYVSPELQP
CDK17 (human), sequence (Q00537 whole entry, looked up): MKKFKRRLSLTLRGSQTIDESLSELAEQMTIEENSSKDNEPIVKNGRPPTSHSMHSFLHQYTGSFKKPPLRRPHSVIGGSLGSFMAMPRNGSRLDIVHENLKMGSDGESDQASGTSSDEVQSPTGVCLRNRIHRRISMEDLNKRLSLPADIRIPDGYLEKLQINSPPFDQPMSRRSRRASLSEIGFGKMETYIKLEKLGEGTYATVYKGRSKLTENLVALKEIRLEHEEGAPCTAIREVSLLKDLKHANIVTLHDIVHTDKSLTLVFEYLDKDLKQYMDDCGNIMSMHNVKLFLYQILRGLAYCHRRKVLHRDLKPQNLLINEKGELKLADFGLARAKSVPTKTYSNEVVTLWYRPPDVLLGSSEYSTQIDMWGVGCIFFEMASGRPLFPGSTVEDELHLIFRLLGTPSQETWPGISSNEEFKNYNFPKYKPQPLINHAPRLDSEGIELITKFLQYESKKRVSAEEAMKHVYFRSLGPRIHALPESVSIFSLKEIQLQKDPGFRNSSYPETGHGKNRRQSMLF
RPS6KB1 (human), sequence (P23443 whole entry, looked up): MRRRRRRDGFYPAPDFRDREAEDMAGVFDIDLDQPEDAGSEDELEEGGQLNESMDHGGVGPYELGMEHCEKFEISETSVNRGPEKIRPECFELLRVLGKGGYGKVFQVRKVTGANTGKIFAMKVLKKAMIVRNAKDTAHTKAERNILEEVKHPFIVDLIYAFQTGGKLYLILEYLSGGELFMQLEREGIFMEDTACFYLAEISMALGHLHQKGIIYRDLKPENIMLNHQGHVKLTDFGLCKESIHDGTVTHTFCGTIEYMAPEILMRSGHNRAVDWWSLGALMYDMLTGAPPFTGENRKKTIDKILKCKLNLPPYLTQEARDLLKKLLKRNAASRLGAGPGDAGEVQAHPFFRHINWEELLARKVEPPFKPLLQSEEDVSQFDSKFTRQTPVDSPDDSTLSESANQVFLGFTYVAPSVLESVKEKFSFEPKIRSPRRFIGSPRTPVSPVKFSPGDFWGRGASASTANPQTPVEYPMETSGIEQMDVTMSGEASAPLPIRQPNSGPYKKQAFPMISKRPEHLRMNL
RPS6KA1 KD2 (human), sequence (Q15418 whole entry, looked up): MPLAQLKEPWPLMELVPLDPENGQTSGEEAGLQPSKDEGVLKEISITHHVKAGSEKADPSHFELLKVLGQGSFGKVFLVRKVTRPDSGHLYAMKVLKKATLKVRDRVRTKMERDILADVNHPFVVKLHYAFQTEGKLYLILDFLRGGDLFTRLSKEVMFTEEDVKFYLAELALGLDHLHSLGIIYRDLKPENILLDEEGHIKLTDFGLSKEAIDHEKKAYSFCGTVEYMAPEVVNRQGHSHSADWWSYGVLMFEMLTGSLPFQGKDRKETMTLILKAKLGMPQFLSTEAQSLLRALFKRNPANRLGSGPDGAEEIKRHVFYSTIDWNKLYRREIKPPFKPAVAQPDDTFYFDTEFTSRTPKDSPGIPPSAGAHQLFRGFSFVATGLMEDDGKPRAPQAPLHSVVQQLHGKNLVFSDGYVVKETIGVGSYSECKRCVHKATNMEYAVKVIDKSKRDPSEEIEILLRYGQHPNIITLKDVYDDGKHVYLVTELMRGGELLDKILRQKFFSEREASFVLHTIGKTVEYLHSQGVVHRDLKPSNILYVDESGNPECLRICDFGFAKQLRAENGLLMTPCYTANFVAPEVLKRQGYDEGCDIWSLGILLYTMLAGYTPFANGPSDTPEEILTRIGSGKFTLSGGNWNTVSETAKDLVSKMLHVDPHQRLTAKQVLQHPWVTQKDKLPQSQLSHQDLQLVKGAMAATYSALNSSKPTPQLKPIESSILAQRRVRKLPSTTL

## CCN1CCN(Cc2ccc(Nc3ncc4c(n3)N(C)c3ccccc3C(=O)N4C)cc2C(F)(F)F)CC1
[1]
  kinase still bound, per cent of control: 12%
PIK3CB (human)
  kinase still bound, per cent of control: 68%
TIE1 (human)
  kinase still bound, per cent of control: 22%
FGFR1 (human)
  kinase still bound, per cent of control: 17%
AXL (human)
  kinase still bound, per cent of control: 11%
FLT1 (human)
  kinase still bound, per cent of control: 100%
PRKX (human)
  kinase still bound, per cent of control: 100%
MAP2K5 (human)
  kinase still bound, per cent of control: 35%
EPHA5 (human)
  kinase still bound, per cent of control: 100%
KDR (human)
  kinase still bound, per cent of control: 100%
MAP3K11 (human)
  kinase still bound, per cent of control: 84%
MINK1 (human)
  kinase still bound, per cent of control: 68%
ACVRL1 (human)
  kinase still bound, per cent of control: 100%
CSNK2A2 (human)
  kinase still bound, per cent of control: 100%
SIK2 (human)
  kinase still bound, per cent of control: 24%
[2]
  kinase still bound, per cent of control: 99%
PIP4K2B (human)
  kinase still bound, per cent of control: 31%
[3]
  kinase still bound, per cent of control: 0%
PLK4 (human)
  kinase still bound, per cent of control: 0.1%
CDKL1 (human)
  kinase still bound, per cent of control: 98%
MYO3A (human)
  kinase still bound, per cent of control: 88%
CDK14 (human)
  kinase still bound, per cent of control: 100%
CDK17 (human)
  kinase still bound, per cent of control: 88%
[4]
  kinase still bound, per cent of control: 88%
RPS6KA1 KD2 (human)
  kinase still bound, per cent of control: 23%
PRKCH (human)
  kinase still bound, per cent of control: 100%
CSNK1G1 (human)
  kinase still bound, per cent of control: 7.6%
RPS6KB1 (human)
  kinase still bound, per cent of control: 48%
[5]
  kinase still bound, per cent of control: 0.1%
PRKD1 (human)
  kinase still bound, per cent of control: 17%
TNK1 (human)
  kinase still bound, per cent of control: 0.3%
TNK2 (human)
  kinase still bound, per cent of control: 24%
PKN1 (human)
  kinase still bound, per cent of control: 76%
GSK3A (human)
  kinase still bound, per cent of control: 100%
LYN (human)
  kinase still bound, per cent of control: 61%
DAPK2 (human)
  kinase still bound, per cent of control: 70%
PLK2 (human)
  kinase still bound, per cent of control: 100%
NIM1 (human)
  kinase still bound, per cent of control: 57%
ALK (human)
  kinase still bound, per cent of control: 64%
CDKL5 (human)
  kinase still bound, per cent of control: 100%

## C=CC(=O)Nc1cccc(Nc2nc(N[C@H]3CC[C@H](N(C)C)CC3)nc3c2ncn3C(C)C)c1
[1]
  kinase still bound, per cent of control: 100%
PIK3CB (human)
  kinase still bound, per cent of control: 100%
TIE1 (human)
  kinase still bound, per cent of control: 86%
FGFR1 (human)
  kinase still bound, per cent of control: 76%
AXL (human)
  kinase still bound, per cent of control: 40%
FLT1 (human)
  kinase still bound, per cent of control: 100%
PRKX (human)
  kinase still bound, per cent of control: 100%
MAP2K5 (human)
  kinase still bound, per cent of control: 59%
EPHA5 (human)
  kinase still bound, per cent of control: 76%
KDR (human)
  kinase still bound, per cent of control: 96%
MAP3K11 (human)
  kinase still bound, per cent of control: 24%
MINK1 (human)
  kinase still bound, per cent of control: 27%
ACVRL1 (human)
  kinase still bound, per cent of control: 100%
CSNK2A2 (human)
  kinase still bound, per cent of control: 48%
SIK2 (human)
  kinase still bound, per cent of control: 69%
[2]
  kinase still bound, per cent of control: 98%
PIP4K2B (human)
  kinase still bound, per cent of control: 54%
[3]
  kinase still bound, per cent of control: 9.1%
PLK4 (human)
  kinase still bound, per cent of control: 85%
CDKL1 (human)
  kinase still bound, per cent of control: 100%
MYO3A (human)
  kinase still bound, per cent of control: 94%
CDK14 (human)
  kinase still bound, per cent of control: 98%
CDK17 (human)
  kinase still bound, per cent of control: 100%
[4]
  kinase still bound, per cent of control: 59%
RPS6KA1 KD2 (human)
  kinase still bound, per cent of control: 67%
PRKCH (human)
  kinase still bound, per cent of control: 91%
CSNK1G1 (human)
  kinase still bound, per cent of control: 28%
RPS6KB1 (human)
  kinase still bound, per cent of control: 87%
[5]
  kinase still bound, per cent of control: 76%
PRKD1 (human)
  kinase still bound, per cent of control: 100%
TNK1 (human)
  kinase still bound, per cent of control: 100%
TNK2 (human)
  kinase still bound, per cent of control: 46%
PKN1 (human)
  kinase still bound, per cent of control: 22%
GSK3A (human)
  kinase still bound, per cent of control: 100%
LYN (human)
  kinase still bound, per cent of control: 50%
DAPK2 (human)
  kinase still bound, per cent of control: 37%
PLK2 (human)
  kinase still bound, per cent of control: 52%
NIM1 (human)
  kinase still bound, per cent of control: 66%
ALK (human)
  kinase still bound, per cent of control: 21%
CDKL5 (human)
  kinase still bound, per cent of control: 100%

## CN(C)C/C=C/C(=O)Nc1cccc(Nc2ncc3c(n2)N(C)c2ccccc2C(=O)N3C)c1
[1]
  kinase still bound, per cent of control: 55%
PIK3CB (human)
  kinase still bound, per cent of control: 32%
TIE1 (human)
  kinase still bound, per cent of control: 5.4%
FGFR1 (human)
  kinase still bound, per cent of control: 3.5%
AXL (human)
  kinase still bound, per cent of control: 7%
FLT1 (human)
  kinase still bound, per cent of control: 83%
PRKX (human)
  kinase still bound, per cent of control: 100%
MAP2K5 (human)
  kinase still bound, per cent of control: 45%
EPHA5 (human)
  kinase still bound, per cent of control: 99%
KDR (human)
  kinase still bound, per cent of control: 90%
MAP3K11 (human)
  kinase still bound, per cent of control: 100%
MINK1 (human)
  kinase still bound, per cent of control: 29%
ACVRL1 (human)
  kinase still bound, per cent of control: 100%
CSNK2A2 (human)
  kinase still bound, per cent of control: 87%
SIK2 (human)
  kinase still bound, per cent of control: 9%
[2]
  kinase still bound, per cent of control: 67%
PIP4K2B (human)
  kinase still bound, per cent of control: 36%
[3]
  kinase still bound, per cent of control: 0.75%
PLK4 (human)
  kinase still bound, per cent of control: 0%
CDKL1 (human)
  kinase still bound, per cent of control: 83%
MYO3A (human)
  kinase still bound, per cent of control: 100%
CDK14 (human)
  kinase still bound, per cent of control: 100%
CDK17 (human)
  kinase still bound, per cent of control: 80%
[4]
  kinase still bound, per cent of control: 62%
RPS6KA1 KD2 (human)
  kinase still bound, per cent of control: 39%
PRKCH (human)
  kinase still bound, per cent of control: 100%
CSNK1G1 (human)
  kinase still bound, per cent of control: 47%
RPS6KB1 (human)
  kinase still bound, per cent of control: 63%
[5]
  kinase still bound, per cent of control: 0.25%
PRKD1 (human)
  kinase still bound, per cent of control: 15%
TNK1 (human)
  kinase still bound, per cent of control: 0.4%
TNK2 (human)
  kinase still bound, per cent of control: 4.4%
PKN1 (human)
  kinase still bound, per cent of control: 69%
GSK3A (human)
  kinase still bound, per cent of control: 69%
LYN (human)
  kinase still bound, per cent of control: 52%
DAPK2 (human)
  kinase still bound, per cent of control: 69%
PLK2 (human)
  kinase still bound, per cent of control: 37%
NIM1 (human)
  kinase still bound, per cent of control: 21%
ALK (human)
  kinase still bound, per cent of control: 51%
CDKL5 (human)
  kinase still bound, per cent of control: 100%
